Assay results reported in ChEMBL document CHEMBL1138039, “Discovery and pharmacological evaluation of growth hormone secretagogue receptor antagonists” (J Med Chem, 2006).
Calls of active or inactive are those of the source. No cut-off for these calls is given here.

Experiments:
[1] = target: T1, Growth hormone secretagogue receptor type 1 (Homo sapiens, UniProt Q92847); assay: Inhibition of [125I]ghrelin binding to GHS receptor in CHO-K cells; type: cell-based
[2] = target: T1, Growth hormone secretagogue receptor type 1; assay: Activity at GHS receptor by calcium flux assay in CHO-K cells; type: functional, cell-based
[3] = target: T2, Dihydrofolate reductase (Homo sapiens, UniProt P00374); assay: Inhibition of human recombinant DHFR assessed as rate of depletion of NADPH
T2 sequence (P00374 whole entry): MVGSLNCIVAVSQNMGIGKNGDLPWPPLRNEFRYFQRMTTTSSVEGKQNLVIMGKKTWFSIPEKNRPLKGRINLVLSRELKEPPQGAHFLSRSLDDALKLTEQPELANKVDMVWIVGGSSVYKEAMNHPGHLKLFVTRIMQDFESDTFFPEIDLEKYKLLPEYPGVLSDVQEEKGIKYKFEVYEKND

[4] = target: T3, Dihydrofolate reductase (Homo sapiens) (UniProt P00374); assay: Inhibition of human recombinant DHFR assessed as rate of depletion of NADPH at 1 uM
T3 sequence (whole entry): T2 sequence (P00374 whole entry)

[5] = Bioavailability in rat; type: ADME, organism-based; settings: in vivo
[6] = Half life in rat; type: ADME, organism-based; settings: in vivo
[7] = AUC in orally dosed rat; type: ADME, organism-based; settings: plasma, po
[8] = Ratio of drug level in brain against plasma in rat after 1 hr; type: ADME, organism-based; settings: read-out: BBR
[9] = Ratio of drug level in brain against plasma in rat after 4 hrs; type: ADME, organism-based; settings: read-out: BBR
[10] = Ratio of drug level in brain against plasma in rat after 8 hrs; type: ADME, organism-based; settings: read-out: BBR
[11] = system: Rattus norvegicus; assay: Reduction of cumulative food intake in Sprague-Dawley rat at 50 mg/kg, po after 32 hrs; type: functional; parameters: scale not given: the % may be the effect or the level left
[12] = system: Rattus norvegicus; assay: Reduction of cumulative food intake in Sprague-Dawley rat at 50 mg/kg, po after 24 hrs; type: functional; parameters: scale not given: the % may be the effect or the level left
[13] = system: Mus musculus; assay: Decrease of food intake in C57BL/6J mouse at 50 mg/kg, po after 1 day; type: functional, organism-based; parameters: dose 50 mg/kg
[14] = system: Mus musculus; assay: Decrease of body weight in C57BL/6J mouse at 50 mg/kg, po after 14 days; type: functional; parameters: scale not given: the % may be the effect or the level left
[15] = system: Mus musculus; assay: Decrease of epididymal fat pad weight in C57BL/6J mouse at 50 mg/kg, po after 14 days; type: functional; parameters: scale not given: the % may be the effect or the level left
[16] = system: Mus musculus; assay: Decrease of plasma insulin level in C57BL/6J mouse at 50 mg/kg, po after 14 days; type: functional, organism-based; parameters: dose 50 mg/kg
[17] = system: Mus musculus; assay: Change in lean body mass of C57BL/6J mouse at 50 mg/kg, po after 14 days; type: functional, organism-based; parameters: dose 50 mg/kg
[18] = Half life in DIO mouse; type: ADME, organism-based; settings: in vivo
[19] = AUC in orally dosed DIO mouse; type: ADME, organism-based; settings: plasma, po
[20] = system: Mus musculus; assay: Ratio of drug level in brain against plasma in orally dosed DIO mouse; type: ADME, organism-based; settings: po
[21] = system: Mus musculus; assay: Reduction of cumulative food intake in fasted DIO mouse at 100 mg/kg, po after 20 mins; type: functional; parameters: scale not given: the % may be the effect or the level left
[22] = system: Mus musculus; assay: Reduction of cumulative food intake in fasted DIO mouse at 100 mg/kg, po after 1 hr; type: functional; parameters: scale not given: the % may be the effect or the level left
[23] = system: Mus musculus; assay: Reduction of cumulative food intake in fasted DIO mouse at 30 mg/kg, po after 20 mins; type: functional; parameters: scale not given: the % may be the effect or the level left
[24] = system: Mus musculus; assay: Reduction of cumulative food intake in fasted DIO mouse at 30 mg/kg, po after 1 hr; type: functional; parameters: scale not given: the % may be the effect or the level left
[25] = system: Mus musculus; assay: Reduction of cumulative food intake in fasted DIO mouse at 30 mg/kg, ip after 2 hrs; type: functional, organism-based; parameters: dose 30 mg/kg
[26] = system: Mus musculus; assay: Reduction of cumulative food intake in fasted DIO mouse at 30 mg/kg, ip after 4 hrs; type: functional, organism-based; parameters: dose 30 mg/kg
[27] = system: Mus musculus; assay: Reduction of cumulative food intake in fasted DIO mouse at 30 mg/kg, ip after 24 hrs; type: functional, organism-based; parameters: dose 30 mg/kg

T1 sequence (Q92847 whole entry): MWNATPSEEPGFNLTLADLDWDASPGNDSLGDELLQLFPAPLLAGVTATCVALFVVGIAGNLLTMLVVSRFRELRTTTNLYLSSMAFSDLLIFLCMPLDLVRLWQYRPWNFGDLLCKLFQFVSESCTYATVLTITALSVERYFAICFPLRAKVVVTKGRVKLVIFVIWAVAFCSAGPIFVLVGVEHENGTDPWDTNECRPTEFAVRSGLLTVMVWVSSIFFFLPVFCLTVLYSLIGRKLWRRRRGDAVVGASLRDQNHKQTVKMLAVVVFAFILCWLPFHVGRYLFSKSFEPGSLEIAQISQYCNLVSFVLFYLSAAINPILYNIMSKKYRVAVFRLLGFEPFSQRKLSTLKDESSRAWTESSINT

Row | IC50 [1] [µM] | IC50 [2] [µM] | IC50 [3] [µM] | Structure (SMILES) | other results
1 | 0.391 | > 10 |  | Nc1nc(N)c(-c2ccc(NC(=O)C3CCCO3)cc2)c(COCc2ccccc2)n1 (configuration not stated) | 
2 |  | 0.007 | > 10 | Nc1nc(N)c(-c2ccc(NC(=O)NCCc3ccccc3)cc2)c(COCc2ccccc2)n1 | 
3 | 0.07 | 0.382 |  | Nc1nc(N)c(-c2ccc(NC(=O)Cc3ccsc3)cc2)c(COCc2ccccc2)n1 | 
4 |  | 0.034 |  | Nc1nc(N)c(-c2ccc(NC(=O)NCc3ccccc3)cc2)c(COCc2ccccc2)n1 | 
5 | 0.007 | 0.019 | < 0.01 | CCc1nc(N)nc(N)c1-c1ccc(NCc2ccc(S(C)(=O)=O)cc2)cc1 | inhibition [4]: 99%
6 |  | 0.01 |  | CC(NC(=O)Nc1ccc(-c2c(N)nc(N)nc2COCc2ccccc2)cc1)c1ccccc1 (configuration not stated) | 
7 | 0.072 | 0.108 |  | CC(C)CC(=O)Nc1ccc(-c2c(N)nc(N)nc2COCc2ccccc2)cc1 | 
8 | 0.004 | 0.011 |  | CCc1nc(N)nc(N)c1-c1ccc2c(c1)ncn2Cc1ccc(S(C)(=O)=O)cc1 | inhibition [4]: 78%
9 | 3.08 | > 10 |  | Nc1nc(N)c(-c2ccc(NC(=O)c3ccncc3)cc2)c(COCc2ccccc2)n1 | 
10 | 0.037 | 0.408 | > 10 | Nc1nc(N)c(-c2ccc(NC(=O)Cc3ccccc3)cc2)c(COCc2ccccc2)n1 | 
11 | 1.67 | > 10 |  | CN(C(=O)C1CCCC1)c1ccc(-c2c(N)nc(N)nc2COCc2ccccc2)cc1 | 
12 | 0.221 | > 10 |  | CCC(=O)Nc1ccc(-c2c(N)nc(N)nc2COCc2ccccc2)cc1 | 
13 |  | 0.088 | > 10 | Nc1nc(N)c(-c2ccc(NC(=O)Nc3ccccc3)cc2)c(COCc2ccccc2)n1 | 
14 |  | > 10 |  | CC(C)N(C)C(=O)Nc1ccc(-c2c(N)nc(N)nc2COCc2ccccc2)cc1 | 
15 | 0.066 | 0.188 | 28 | Nc1nc(N)c(-c2ccc(NC(=O)C3CC3)cc2)c(COCc2ccccc2)n1 | bioavailability [5]: 32%; half-life [6]: 2.4 h; AUC [7]: 820 ng·h/mL; Kp at 1 h [8]: 0.26; Kp at 4 h [9]: 1.1; Kp at 8 h [10]: 0.97; Activity [11]: 11%; Activity [12]: 9%; Activity [13]: Active; Activity [14]: 5.4%; Activity [15]: 20%; Activity [16]: Active; Activity [17]: inactive
16 |  | 0.056 | > 10 | CC(C)NC(=O)Nc1ccc(-c2c(N)nc(N)nc2COCc2ccccc2)cc1 | 
17 | 0.016 | 0.249 | 2.3 | CCc1nc(N)nc(N)c1-c1ccc2c(c1)nc(-c1ccccc1)n2Cc1ccc(S(C)(=O)=O)cc1 | 
18 |  | 0.007 | > 100 | CC(C)(C)NC(=O)Nc1ccc(-c2c(N)nc(N)nc2COCc2ccccc2)cc1 | half-life [18]: 4.5 h; AUC [19]: 12300 ng·h/mL; BBR [20]: Not Active; Activity [21]: 40%; Activity [22]: 60%; Activity [23]: 40%; Activity [24]: 60%
19 | > 1 | > 10 |  | Nc1nc(N)c(-c2ccc(NC(=O)Cc3cccnc3)cc2)c(COCc2ccccc2)n1 | 
20 | 0.018 | 0.04 | > 10 | Nc1nc(N)c(-c2ccc(NC(=O)C3CCCC3)cc2)c(COCc2ccccc2)n1 | 
21 | 0.008 | 0.109 | 1.83 | CCc1nc(N)nc(N)c1-c1ccc2c(c1)nc(C1CCCC1)n2Cc1ccc(S(C)(=O)=O)cc1 | 
22 | 2.27 | > 10 |  | CC(=O)Nc1ccc(-c2c(N)nc(N)nc2COCc2ccccc2)cc1 | 
23 |  |  |  | CCc1nc(N)nc(N)c1-c1ccc(NCc2ccc(Cl)cc2)cc1 | bioavailability [5]: 75%
24 |  |  |  | Nc1nc(N)c(-c2ccc(NCc3ccc(Cl)cc3)cc2)c(COCc2ccccc2)n1 | Kp at 1 h [8]: 3.1; Kp at 8 h [10]: 1.4; Activity [25]: Active; Activity [26]: Active; Activity [27]: Active
25 | 0.047 | 0.343 |  | Nc1nc(N)c(-c2ccc(NC(=O)CCc3ccccc3)cc2)c(COCc2ccccc2)n1 | 
26 | 0.041 | 0.137 | > 10 | Nc1nc(N)c(-c2ccc(NC(=O)Cc3ccsc3Br)cc2)c(COCc2ccccc2)n1 | 
27 | 0.126 | > 10 |  | Nc1nc(N)c(-c2ccc(NC(=O)c3ccsc3)cc2)c(COCc2ccccc2)n1 | 
